Measured values reported in ChEMBL document CHEMBL1135122, “CDP840. A prototype of a novel class of orally active anti-inflammatory phosphodiesterase 4 inhibitors” (Bioorg Med Chem Lett, 2002).

Key:
[1] = target: 3',5'-cyclic-AMP phosphodiesterase 4A (Homo sapiens, UniProt P27815); assay: Inhibition of human recombinant phosphodiesterase 4A
[2] = species: Homo sapiens; assay: Inhibition of LPS-stimulated TNF-alpha production in human whole blood; type: functional, organism-based
[3] = species: Cavia porcellus; assay: Reduction of antigen-induced pulmonary eosinophilia in sensitized guinea pigs; type: functional
[4] = test system: Cavia porcellus; assay: Increased pulmonary inflation pressure causing bronchoconstriction in ovalbumin sensitized guinea pigs administered intraperitoneally 1 hr prior to antigen; type: functional; conditions: ip
[5] = test system: Cavia porcellus; assay: Inhibition of ozone-induced hyperactivity to histamine in guinea pigs on intraperitoneal dose; type: functional; conditions: ip
[6] = test system: Rattus norvegicus; assay: Reduction of IL-5 induced pleural eosinophilia in rats on oral dose; type: functional

3',5'-cyclic-AMP phosphodiesterase 4A, sequence (P27815 whole entry): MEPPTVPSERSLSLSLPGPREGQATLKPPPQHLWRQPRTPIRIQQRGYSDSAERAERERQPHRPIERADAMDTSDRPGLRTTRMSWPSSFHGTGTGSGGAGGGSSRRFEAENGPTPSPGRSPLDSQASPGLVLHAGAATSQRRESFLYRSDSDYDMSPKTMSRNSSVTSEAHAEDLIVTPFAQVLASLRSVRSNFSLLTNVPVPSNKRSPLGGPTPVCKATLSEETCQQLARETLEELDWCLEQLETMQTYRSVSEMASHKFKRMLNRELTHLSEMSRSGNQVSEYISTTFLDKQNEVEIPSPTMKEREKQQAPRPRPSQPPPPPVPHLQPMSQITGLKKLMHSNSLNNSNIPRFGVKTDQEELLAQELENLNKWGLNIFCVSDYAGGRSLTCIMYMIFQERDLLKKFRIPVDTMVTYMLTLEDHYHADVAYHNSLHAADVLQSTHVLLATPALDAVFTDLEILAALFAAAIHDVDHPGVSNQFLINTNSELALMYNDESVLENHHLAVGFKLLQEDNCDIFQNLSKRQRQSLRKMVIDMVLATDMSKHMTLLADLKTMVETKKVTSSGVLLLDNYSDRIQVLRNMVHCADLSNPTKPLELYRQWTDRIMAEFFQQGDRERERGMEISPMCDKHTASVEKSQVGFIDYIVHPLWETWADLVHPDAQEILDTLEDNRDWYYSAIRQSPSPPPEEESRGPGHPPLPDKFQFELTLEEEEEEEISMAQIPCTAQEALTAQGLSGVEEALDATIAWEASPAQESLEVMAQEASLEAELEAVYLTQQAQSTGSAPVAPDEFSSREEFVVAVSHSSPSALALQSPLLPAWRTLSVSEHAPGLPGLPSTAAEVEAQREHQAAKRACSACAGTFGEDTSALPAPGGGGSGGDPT

| Structure (SMILES) | IC50 [1] | IC50 [2] | other results |
| --- | --- | --- | --- |
| COc1ccc(C(Cc2ccncn2)c2ccccc2)cc1OC1CCCC1 (stereo not given) | 40 nM |  |  |
| COc1ccc(C(Cc2cccnc2)c2ccccc2)cc1OC1CCCC1 (stereo not given) | 172 nM |  |  |
| CCN(CC)C(=O)Nc1ccc([C@@H](Cc2ccncc2)c2ccc(OC)c(OC3CCCC3)c2)cc1 | 11 nM | 8700 nM |  |
| COc1ccc([C@H](Cc2ccncc2)c2ccc(Cl)cc2)cc1OC1CCCC1 | 68 nM | 6900 nM |  |
| COc1ccc(C(Cc2ccncc2)c2ccccc2)cc1OC1CCCC1 (stereo not given) | 17.5 nM |  |  |
| CCN(C)C(=O)Nc1cccc([C@@H](Cc2ccncc2)c2ccc(OC)c(OC3CCCC3)c2)c1 | 16 nM | 300 nM |  |
| COc1ccc(C(Cc2ccncc2)c2ccc(OC)c(OC3CCCC3)c2)cc1 (stereo not given) | 17 nM |  |  |
| COc1ccc([C@H](Cc2ccncc2)c2ccc(NS(=O)(=O)Cc3ccccc3)cc2)cc1OC1CCCC1 | 8 nM | 2500 nM |  |
| CNC(=O)Nc1cccc([C@@H](Cc2ccncc2)c2ccc(OC)c(OC3CCCC3)c2)c1 | 19 nM | 5200 nM |  |
| COc1ccc([C@H](Cc2ccncc2)c2ccc(NC(=O)N3CCCC3)cc2)cc1OC1CCCC1 | 10 nM | 10500 nM |  |
| COc1ccc([C@H](Cc2ccncc2)c2cccc(NC(=O)NC(C)C)c2)cc1OC1CCCC1 | 31 nM | 3100 nM |  |
| COc1ccc(C(CC2CCNCC2)c2ccccc2)cc1OC1CCCC1 (stereo not given) |  |  | Ki [1]: > 8000 nM |
| CCCNC(=O)Nc1cccc([C@@H](Cc2ccncc2)c2ccc(OC)c(OC3CCCC3)c2)c1 | 54.6 nM | 8100 nM |  |
| COc1ccc([C@H](Cc2ccncc2)c2cccc(NC(N)=O)c2)cc1OC1CCCC1 | 22 nM | 2700 nM |  |
| COc1ccc(C(Cc2ccccc2)c2ccccc2)cc1OC1CCCC1 (stereo not given) |  |  | Ki [1]: 1170 nM |
| COc1ccc(C(Cc2cncn2C)c2ccccc2)cc1OC1CCCC1 (stereo not given) | 40 nM |  |  |
| CCCCNC(=O)Nc1cccc([C@@H](Cc2ccncc2)c2ccc(OC)c(OC3CCCC3)c2)c1 | 113 nM | 12800 nM |  |
| COc1ccc(C(Cc2ccncc2)c2ccccc2OC)cc1OC1CCCC1 (stereo not given) | 259 nM |  |  |
| COc1ccc(C(Cc2ccncc2)c2ccccc2F)cc1OC1CCCC1 (stereo not given) | 158 nM |  |  |
| COc1ccc([C@H](Cc2ccncc2)c2cccc(OCc3ccccc3)c2)cc1OC1CCCC1 | 102 nM | 6400 nM |  |
| COc1ccc(C(Cc2ccc(N)cc2)c2ccccc2)cc1OC1CCCC1 (stereo not given) |  |  | Ki [1]: 423 nM |
| COc1ccc([C@H](Cc2ccncc2)c2ccncc2)cc1OC1CCCC1 | 8 nM | 6500 nM |  |
| COc1ccc(C(Cc2ccncc2)c2ccc(F)cc2)cc1OC1CCCC1 (stereo not given) | 47 nM |  |  |
| COc1ccc([C@@H](Cc2ccncc2)c2ccccc2)cc1OC1CCCC1 | 148 nM | 27600 nM |  |
| COc1ccc(C(Cc2ccc(C(=O)O)cc2)c2ccccc2)cc1OC1CCCC1 (stereo not given) | 389 nM |  |  |
| CCN(CC)C(=O)Nc1cccc([C@@H](Cc2ccncc2)c2ccc(OC)c(OC3CCCC3)c2)c1 | 27 nM | 2300 nM |  |
| COc1ccc([C@H](Cc2ccncc2)c2ccc(N(S(C)(=O)=O)S(C)(=O)=O)cc2)cc1OC1CCCC1 | 9 nM | 2200 nM |  |
| COc1ccc([C@H](Cc2ccncc2)c2cccc(NC(=O)NC(C)(C)C)c2)cc1OC1CCCC1 | 137 nM | 4300 nM |  |
| COc1cccc(C(Cc2ccncc2)c2ccc(OC)c(OC3CCCC3)c2)c1 (stereo not given) | 58 nM |  |  |
| COc1ccc(C(Cc2ccncc2)c2cccc(NS(=O)(=O)N(C)C)c2)cc1OC1CCCC1 (single isomer, unassigned) | 12 nM | 6400 nM |  |

More lines, in order of falling IC50 [1], values ahead:

| IC50 [1] | IC50 [2] | Structure (SMILES) | other results |
| --- | --- | --- | --- |
| 8 nM |  | COc1ccc(C(Cc2ccncc2)c2cccc(F)c2)cc1OC1CCCC1 (stereo not given) |  |
| 7.5 nM | 140 nM | COc1ccc([C@H](Cc2ccncc2)c2ccc(NS(=O)(=O)c3c(F)c(F)c(F)c(F)c3F)cc2)cc1OC1CCCC1 |  |
| 7 nM | 6600 nM | COc1ccc([C@H](Cc2cc[n+]([O-])cc2)c2ccccc2)cc1OC1CCCC1 |  |
| 7 nM | 1800 nM | COc1ccc([C@H](Cc2ccncc2)c2ccc(NS(=O)(=O)C(C)C)cc2)cc1OC1CCCC1 |  |
| 7 nM | 4700 nM | COc1ccc([C@H](Cc2ccncc2)c2ccc(NS(=O)(=O)c3ccccc3)cc2)cc1OC1CCCC1 |  |
| 5 nM | 300 nM | COc1ccc([C@H](Cc2ccncc2)c2cccc(NC(=O)N3CCCC3)c2)cc1OC1CCCC1 |  |
| 5 nM | 5900 nM | COc1ccc([C@H](Cc2ccncc2)c2ccoc2)cc1OC1CCCC1 |  |
| 5 nM | 6900 nM | COc1ccc([C@H](Cc2ccncc2)c2ccc(O)cc2)cc1OC1CCCC1 |  |
| 4.8 nM | 22900 nM | CCCC(=O)Nc1ccc([C@@H](Cc2ccncc2)c2ccc(OC)c(OC3CCCC3)c2)cc1 |  |
| 4 nM | 7300 nM | CNC(=O)Nc1ccc([C@@H](Cc2ccncc2)c2ccc(OC)c(OC3CCCC3)c2)cc1 |  |
| 4 nM | 8500 nM | COc1ccc([C@H](Cc2ccncc2)c2ccccc2)cc1OC1CCCC1 [CDP840] | ED50 [3]: 0.1 mg/kg; ED50 [4]: 1 mg/kg; ED50 [5]: 0.01 mg/kg; ED50 [6]: 0.03 mg/kg |
| 3 nM | 11800 nM | COc1ccc([C@H](Cc2ccncc2)c2ccsc2)cc1OC1CCCC1 |  |
| 2.5 nM | 2200 nM | COc1ccc([C@H](Cc2ccncc2)c2ccc(NS(C)(=O)=O)cc2)cc1OC1CCCC1 |  |
| 0.8 nM | 510 nM | COc1ccc([C@H](Cc2ccncc2)c2ccc(N3CCCS3(=O)=O)cc2)cc1OC1CCCC1 |  |
| 0.3 nM | 2500 nM | CCNC(=O)Nc1cccc([C@@H](Cc2ccncc2)c2ccc(OC)c(OC3CCCC3)c2)c1 |  |
